Several values for one entry are separate records, joined by “and”; a condition that tells them apart may be missing. Equal values may be shown once. Toxic doses and inconclusive results are not listed.
Tested on: CD2F1 mice, L1210 leukemia ip, survival T/C
Test: NCI In Vivo Anticancer Drug Screen. Data for tumor model L1210 Leukemia (intraperitoneal) in CD2F1 (CDF1) mice
Settings: higher = longer survival
Summary of the method: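 Vehicle-treated tumor-bearing mice served as controls (C) for compound-treated mice (T). Reported figure is T divided by C.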

NC(=O)c1cn(C2OC(CO)C(O)C2O)c2ncnc(N)c12 (configuration not stated)
T/C (endpoint: mean survival time, dose: 0.06 mg/kg/injection, schedule: Q01DX009 (ip), vehicle: acid diluted with saline): 117 % of control
T/C (endpoint: mean survival time, dose: 0.06 mg/kg/injection, schedule: Q01DX009 (ip), vehicle: saline): 108 % of control
T/C (endpoint: mean survival time, dose: 0.08 mg/kg/injection, schedule: Q## X008 (ip), vehicle: carboxymethylcellulose (CMC)): 117 % of control
T/C (endpoint: mean survival time, dose: 0.13 mg/kg/injection, schedule: Q01DX009 (ip), vehicle: saline): 120 % of control and 121 % of control
T/C (endpoint: mean survival time, dose: 0.13 mg/kg/injection, schedule: Q03HX008 (ip), vehicle: saline): 124 % of control
T/C (endpoint: mean survival time, dose: 0.13 mg/kg/injection, schedule: Q03HX016 (ip), vehicle: saline): 123 % of control
T/C (endpoint: mean survival time, dose: 0.13 mg/kg/injection, schedule: Q03HX024 (ip), vehicle: saline): 119 % of control
T/C (endpoint: mean survival time, dose: 0.2 mg/kg/injection, schedule: Q01DX005 (ip), vehicle: saline): 115 % of control
T/C (endpoint: mean survival time, dose: 0.25 mg/kg/injection, schedule: Q01DX005 (ip), vehicle: saline + alcohol): 124 % of control
T/C (endpoint: mean survival time, dose: 0.31 mg/kg/injection, schedule: Q## X002 (ip), vehicle: carboxymethylcellulose (CMC)): 122 % of control
T/C (endpoint: mean survival time, dose: 0.31 mg/kg/injection, schedule: Q## X008 (ip), vehicle: carboxymethylcellulose (CMC)): 114 % of control
T/C (endpoint: mean survival time, dose: 0.5 mg/kg/injection, schedule: Q01DX009 (ip), vehicle: saline sonified): 123 % of control
T/C (endpoint: mean survival time, dose: 0.5 mg/kg/injection, schedule: Q03HX024 (ip), vehicle: saline): 95 % of control
T/C (endpoint: mean survival time, dose: 0.5 mg/kg/injection, schedule: Q04DX003 (ip), vehicle: saline): 122 % of control
T/C (endpoint: mean survival time, dose: 0.63 mg/kg/injection, schedule: Q01DX001 (ip), vehicle: carboxymethylcellulose (CMC)): 123 % of control
T/C (endpoint: mean survival time, dose: 0.63 mg/kg/injection, schedule: Q## X002 (ip), vehicle: carboxymethylcellulose (CMC)): 124 % of control
T/C (endpoint: mean survival time, dose: 0.63 mg/kg/injection, schedule: Q## X008 (ip), vehicle: carboxymethylcellulose (CMC)): 91 % of control
T/C (endpoint: mean survival time, dose: 1.0 mg/kg/injection, schedule: Q01DX001 (ip), vehicle: saline): 115 % of control and 119 % of control
T/C (endpoint: mean survival time, dose: 1.0 mg/kg/injection, schedule: Q01DX007 (ip), vehicle: saline): 119 % of control
T/C (endpoint: mean survival time, dose: 1.0 mg/kg/injection, schedule: Q01DX009 (ip), vehicle: saline sonified): 88 % of control and 95 % of control and 111 % of control
T/C (endpoint: mean survival time, dose: 1.0 mg/kg/injection, schedule: Q01DX009 (oral), vehicle: saline): 93 % of control
T/C (endpoint: mean survival time, dose: 1.0 mg/kg/injection, schedule: Q04DX003 (ip), vehicle: saline): 122 % of control
T/C (endpoint: mean survival time, dose: 1.0 mg/kg/injection, schedule: Q08DX002 (ip), vehicle: saline): 117 % of control
T/C (endpoint: mean survival time, dose: 1.25 mg/kg/injection, schedule: Q01DX001 (ip), vehicle: carboxymethylcellulose (CMC)): 121 % of control
T/C (endpoint: mean survival time, dose: 1.25 mg/kg/injection, schedule: Q## X002 (ip), vehicle: carboxymethylcellulose (CMC)): 114 % of control
T/C (endpoint: mean survival time, dose: 1.5 mg/kg/injection, schedule: Q01DX009 (ip), vehicle: saline with Tween-80): 109 % of control
T/C (endpoint: mean survival time, dose: 2.0 mg/kg/injection, schedule: Q01DX001 (ip), vehicle: saline): 117 % of control and 112 % of control
T/C (endpoint: mean survival time, dose: 2.0 mg/kg/injection, schedule: Q01DX001 (oral), vehicle: saline): 107 % of control
T/C (endpoint: mean survival time, dose: 2.0 mg/kg/injection, schedule: Q01DX009 (ip), vehicle: acid diluted with saline): 111 % of control
T/C (endpoint: mean survival time, dose: 2.0 mg/kg/injection, schedule: Q01DX009 (ip), vehicle: saline sonified): 88 % of control and 93 % of control
T/C (endpoint: mean survival time, dose: 2.0 mg/kg/injection, schedule: Q01DX009 (oral), vehicle: saline): 97 % of control
T/C (endpoint: mean survival time, dose: 2.0 mg/kg/injection, schedule: Q08DX002 (ip), vehicle: saline): 119 % of control
T/C (endpoint: mean survival time, dose: 2.5 mg/kg/injection, schedule: Q01DX001 (ip), vehicle: carboxymethylcellulose (CMC)): 178 % of control
T/C (endpoint: mean survival time, dose: 4.0 mg/kg/injection, schedule: Q01DX001 (ip), vehicle: saline): 121 % of control and 124 % of control
T/C (endpoint: mean survival time, dose: 4.0 mg/kg/injection, schedule: Q01DX001 (oral), vehicle: saline): 112 % of control
T/C (endpoint: mean survival time, dose: 4.0 mg/kg/injection, schedule: Q01DX005 (ip), vehicle: saline + alcohol): 93 % of control
T/C (endpoint: mean survival time, dose: 4.0 mg/kg/injection, schedule: Q01DX009 (oral), vehicle: saline): 98 % of control
T/C (endpoint: mean survival time, dose: 4.0 mg/kg/injection, schedule: Q04DX003 (ip), vehicle: saline): 101 % of control
T/C (endpoint: mean survival time, dose: 4.0 mg/kg/injection, schedule: Q08DX002 (ip), vehicle: saline): 120 % of control
T/C (endpoint: mean survival time, dose: 8.0 mg/kg/injection, schedule: Q01DX001 (ip), vehicle: saline): 113 % of control
T/C (endpoint: mean survival time, dose: 8.0 mg/kg/injection, schedule: Q01DX001 (oral), vehicle: saline): 101 % of control
T/C (endpoint: mean survival time, dose: 8.0 mg/kg/injection, schedule: Q08DX002 (ip), vehicle: saline): 88 % of control
T/C (endpoint: mean survival time, dose: 16.0 mg/kg/injection, schedule: Q01DX001 (oral), vehicle: saline): 107 % of control
T/C (endpoint: mean survival time, dose: 125.0 micrograms/kg/injection, schedule: Q01DX006 (iv), vehicle: saline): 106 % of control
T/C (endpoint: mean survival time, dose: 125.0 micrograms/kg/injection, schedule: Q01DX Z (im), vehicle: saline): 100 % of control
T/C (endpoint: mean survival time, dose: 250.0 micrograms/kg/injection, schedule: Q01DX006 (iv), vehicle: saline): 101 % of control
T/C (endpoint: mean survival time, dose: 250.0 micrograms/kg/injection, schedule: Q01DX Z (im), vehicle: saline): 101 % of control
T/C (endpoint: mean survival time, dose: 500.0 micrograms/kg/injection, schedule: Q01DX006 (iv), vehicle: saline): 106 % of control
T/C (endpoint: mean survival time, dose: 500.0 micrograms/kg/injection, schedule: Q01DX Z (im), vehicle: saline): 107 % of control
T/C (endpoint: mean survival time, dose: 1000.0 micrograms/kg/injection, schedule: Q01DX006 (iv), vehicle: saline): 109 % of control
T/C (endpoint: mean survival time, dose: 1000.0 micrograms/kg/injection, schedule: Q01DX Z (im), vehicle: saline): 103 % of control
T/C (endpoint: median survival time, dose: 2.0 mg/kg/injection, schedule: Q01DX009 (ip), vehicle: saline): 112 % of control
